Reference: paper PMC6704644 (Journal of Experimental & Clinical Cancer Research : CR, 2019)

Target: T1, mPGES-1 (microsomal prostaglandin E synthase-1) (Homo sapiens, UniProt O14684)
T1 construct: gene PTGES
T1 sequence (O14684 1-152): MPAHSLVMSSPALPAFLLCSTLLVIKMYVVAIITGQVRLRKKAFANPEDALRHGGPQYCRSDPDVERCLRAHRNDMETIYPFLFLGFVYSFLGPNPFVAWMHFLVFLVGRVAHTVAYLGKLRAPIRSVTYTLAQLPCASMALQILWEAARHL
Assay: CETSA in U87 cell lysates (temperature- and dose-dependent), plus enzyme activity inhibition IC50
Assay type: cell-based

- IC50: 17.4 µM
Structure (SMILES): O=C(/C=C/c1ccc(O)cc1)c1ccc(O)cc1O [ISL, isoliquiritigenin]
